Results as given in patent US20260317367A1, “SALTS INCLUDING CRYSTALLINE SALTS OF 25-HYDROXY-CHOLEST-5-EN-3-SULFATE AND METHODS FOR PREPARING SAME” (Durect Corporation, priority 2022, published 2026).
Entries after “also recorded” stand apart in the source; their conditions may differ. Counter-ions that a name gives are not always drawn. Blank lines part the entries; values can stand above or below the compound they belong to.

Key:
Type in all cases: physicochemical
[1] = Differential scanning calorimetry (DSC), thermal decomposition / endothermic transition; conditions: for Decomposition temperature (DSC): 10° C./min; for First significant endothermic transition (DSC): indicative of thermal degradation or solid-state transformation
Description: (§1) Differential scanning calorimetry (DSC) is a thermoanalytical technique where the difference in the amount of heat required to increase the temperature of a sample and reference is measured as a function of temperature. Using this technique, phase transitions of a sample can be measured such as melting point. Decomposition can also be observed by DSC as can dehydration events. In the context of DSC measurements, there is also variability and the term “about” means ±1° C., and such variability is to be understood whether a DSC measurement is prefaced by “about” or not unless specified otherwise. Exemplary methods for collecting DSC data are set forth in Example 21. Thermogravimetric analysis, sometimes referred to as, thermal gravimetric analysis (TGA) is a thermal method of thermal analysis where the mass of a sample is measured as a function of time as the sample temperature changes. For example, when samples disclosed herein are heated and a loss in mass is measured prior to decomposition, this is likely indicative of the loss of water from the sample and may indicate that the sample being heated is a hydrate. Exemplary methods for collecting TGA are set forth in Example 23.
DSC was performed using a Mettler-Toledo DSC3+ differential scanning calorimeter. A tau lag adjustment is performed with indium, tin, and zinc. The temperature and enthalpy are adjusted with octane, phenyl salicylate, indium, tin and zinc. The adjustment is then verified with octane, phenyl salicylate, indium, tin, and zinc. The sample was placed into a hermetically sealed aluminum DSC pan, and the weight was accurately recorded. The pan was then inserted into the DSC cell. A weighed aluminum pan configured as the sample pan was placed on the reference side of the cell. The pan lid was pierced prior to sample analysis. Samples were analyzed from 30° C. to 350° C. or 30° C. to 250° C., both at 10° C./min.

[2] = Dynamic vapor sorption (DVS), hygroscopicity; conditions: for Water uptake (weight gain) up to about 95% relative humidity: 5% to about 95% RH
Description: Dynamic vapor sorption (DVS) measures the uptake of a vapor (typically water) by a sample when exposed to a changing relative humidity. The loss of water can also be measured as relative humidity is decreased. Hygroscopic materials tend to absorb water more readily than non-hygroscopic. In some cases, hydrates absorb water to create higher-order hydrates (e.g., a monohydrate converting to a dihydrate when exposed to increasingly humid conditions). In some salts of the disclosure, moisture is retained upon exposure in a DVS experiment and little or no weight loss is observed upon heating from room temperature. In such experiments, the hygroscopic nature of the salt under study may indicate the formation of a hydrate from an anhydrate. […] Exemplary methods for collecting DVS data are set forth in Example 26.
(§2) Dynamic vapor sorption data was collected on a Surface Measurement System DVS Intrinsic instrument. The samples were not dried prior to analysis. Sorption and desorption data were collected over a range from 5% to 95% RH in 10% RH increments under a nitrogen purge. The equilibrium criteria used for the analyses were 0.001 dm/dt weight change in 5 minutes with a minimum step time of 30 minutes and maximum equilibration time of 180 minutes with a 3 minute data logging interval. Data were not corrected for the initial moisture content of the sample.

[3] = X-ray powder diffraction before and after DVS (form stability); conditions: 5% to 95% RH
Description: XRPD patterns were collected with a PANalytical X'Pert PRO MPD or a PANalytical Empyrean diffractometer using an incident beam of Cu radiation produced using an Optix long, fine-focus source. An elliptically graded multilayer mirror was used to focus Cu Kα X-rays through the specimen and onto the detector. Prior to the analysis, a silicon specimen (NIST SRM 640f) was analyzed to verify the observed position of the Si 111 peak is consistent with the NIST-certified position. A specimen of the sample was sandwiched between 3-μm-thick films and analyzed in transmission geometry. A beam-stop, short antiscatter extension, and antiscatter knife edge were used to minimize the background generated by air. Soller slits for the incident and diffracted beams were used to minimize broadening and asymmetry from axial divergence. Diffraction patterns were collected using a scanning position-sensitive detector (X'Celerator) located 240 mm from the specimen and Data Collector software v. 5.5. All images have the instrument labeled as X'Pert PRO MPD regardless of the instrument used.
XRPD patterns were collected with a PANalytical X'Pert PRO MPD diffractometer using an incident beam of Cu Kα radiation produced using a long, fine-focus source and a nickel filter. The diffractometer was configured using the symmetric Bragg-Brentano geometry. Prior to the analysis, a silicon specimen (NIST SRM 640f) was analyzed to verify the observed position of the Si 111 peak is consistent with the NIST-certified position. A specimen of the sample was prepared as a thin, circular layer centered on a silicon zero-background substrate. Antiscatter slits (SS) were used to minimize the background generated by air. Soller slits for the incident and diffracted beams were used to minimize broadening from axial divergence. Diffraction patterns were collected using a scanning position-sensitive detector (X'Celerator) located 240 mm from the sample and Data Collector software v. 5.5
as §2

[4] = Hausner ratio and compressibility index of 25HC3S salts; conditions: for Compressibility Index: Table C3 heads this index in %
Description: Although there are some variations in the method of determining the compressibility index and Hausner ratio, the basic procedure is to measure the unsettled apparent volume, VO, and the final tapped volume, Vf, of the powder after tapping the material until no further volume changes occur. The compressibility index and the Hausner ratio are calculated as follows: […]
Both the Hausner ratio and the compressibility index are empirically established. The Hausner ratio and compressibility index are not absolute properties of a material; its value can vary depending on the methodology used to determine them. In this case, since the 14 salts of 25HC3S were measured the same way, the relative values should be accurate.
Table C3, from USP <1174> Powder Flow, describes the flow character of the powder based on the compressibility index and Hausner ratio values.
Powder was carefully poured into a 5 mL glass graduated cylinder (to contain) until it was close to or at 5.0 mL. This initial volume was recorded as Vo. The graduated cylinder was tapped on a hard surface for 200 times and the volume was recorded. The cylinder was tapped 100 times more, and the final volume Vf was recorded. Typically, the volume after 200 taps was identical to after 300 taps, or within 0.1 mL.

[5] = Thermogravimetric analysis (TGA), weight loss
Description: as §1
TG analysis was performed using a Mettler-Toledo TGA/DSC3 analyzer. Temperature and enthalpy adjustments were performed using indium, tin, and zinc, and then verified with indium. The balance was verified with calcium oxalate. The sample was placed in an open aluminum pan. The pan was hermetically sealed, the lid pierced, then inserted into the TG furnace. A weighed aluminum pan configured as the sample pan was placed on the reference platform. The furnace was heated under nitrogen. Each sample was heated from ambient temperature to 350° C. at 10° C./min. Although thermograms are plotted by reference temperature (x-axis), results are reported according to sample temperatures.

[6] = listed as crystalline 25HC3S potassium
[7] = DVS, listed as crystalline 25HC3S potassium
[8] = listed as crystalline 25HC3S tromethammonium
[9] = DVS, listed as crystalline 25HC3S tromethammonium
[10] = listed as 25HC3S tromethammonium

Decomposition temperature (DSC) [1, 6]: 198 °C
First significant endothermic transition (DSC) ([1]; listed as potassium): ~198 °C
Water uptake (weight gain) up to about 95% relative humidity [2, 7]: 2%
Hygroscopicity (in words) [2, 7]: limited hygroscopicity
Change of x-ray powder diffraction pattern after DVS (in words) [3, 6]: not an appreciable change
Compressibility Index ([4]; listed as 25HC3S potassium): 26
Hausner Ratio ([4]; listed as 25HC3S potassium): 1.35
Weight loss by TGA, 100° C. to 180° C. ([5]; 100° C. to 180° C.): 1.7%
Weight loss by TGA to about 100° C. ([5]; to about 100° C.): about 0.9%
Structure (SMILES): CC(CCCC(C)(C)O)C1CCC2C3CC=C4CC(OS(=O)(=O)O)CCC4(C)C3CCC12C (stereo not shown) [Salt #1]

First significant endothermic transition (DSC) ([1]; listed as choline): ~198 °C
Weight loss on return to 5% relative humidity ([2]; DVS desorption, 95% to 5% RH): 0.5%
Hygroscopicity (in words) ([2]; DVS, listed as 25HC3S choline): surprisingly low hygroscopicity
Change of x-ray powder diffraction pattern after DVS (in words) ([3]; listed as crystalline 25HC3S choline): does not appreciably change
Compressibility Index ([4]; listed as 25HC3S choline): 42
Hausner Ratio ([4]; listed as 25HC3S choline): 1.72
Weight loss by TGA up to 198° C. (in words) ([5]; up to 198° C.): negligible weight loss
Structure (SMILES): CC(CCCC(C)(C)O)C1CCC2C3CC=C4CC(OS(=O)(=O)O)CCC4(C)C3CCC12C (stereo not shown) [Salt #4]
Reversibility of water uptake (in words) ([2]; DVS, RH reduced from 95% to 5%, listed as crystalline 25HC3S choline): no hysteresis; also recorded: reversibly lose all that water
Hygroscopicity (in words) ([2]; DVS, listed as crystalline 25HC3S choline): not appreciably hygroscopic; also recorded: less hygroscopic

Decomposition temperature (DSC) [1, 8]: about 184 °C
Water uptake (weight gain) up to about 95% relative humidity [2, 9]: over 20%
Hygroscopicity (in words) [2, 9]: hygroscopic
Change of x-ray powder diffraction pattern after DVS (in words) [3, 8]: some potential differences
Compressibility Index [4, 10]: 28
Hausner Ratio [4, 10]: 1.39
Weight loss by TGA up to about 80° C. ([5]; up to about 80° C.): ~0.3%
Structure (SMILES): CC(CCCC(C)(C)O)C1CCC2C3CC=C4CC(OS(=O)(=O)O)CCC4(C)C3CCC12C (stereo not shown) [Salt #8]
